Results on one compound are retold here after BindingDB's records for doi:10.1021/acsmedchemlett.0c00369 (Shenyang Pharmaceutical University, 2021).

The structures appear in SMILES notation.

This assay concerns the target Histone deacetylase 2 (Homo sapiens, UniProt Q92769). As to the kind of experiment: Inhibition of recombinant full length C-terminal FLAG-tagged human HDAC2 expressed in baculovirus infected Sf9 cells using Boc-Lys(Ac)-AMC as substrate preincubated for 15 mins followed by substrate addition and measured after 60 mins by fluorescence based assay.

Sequence of Histone deacetylase 2 (Q92769 whole entry): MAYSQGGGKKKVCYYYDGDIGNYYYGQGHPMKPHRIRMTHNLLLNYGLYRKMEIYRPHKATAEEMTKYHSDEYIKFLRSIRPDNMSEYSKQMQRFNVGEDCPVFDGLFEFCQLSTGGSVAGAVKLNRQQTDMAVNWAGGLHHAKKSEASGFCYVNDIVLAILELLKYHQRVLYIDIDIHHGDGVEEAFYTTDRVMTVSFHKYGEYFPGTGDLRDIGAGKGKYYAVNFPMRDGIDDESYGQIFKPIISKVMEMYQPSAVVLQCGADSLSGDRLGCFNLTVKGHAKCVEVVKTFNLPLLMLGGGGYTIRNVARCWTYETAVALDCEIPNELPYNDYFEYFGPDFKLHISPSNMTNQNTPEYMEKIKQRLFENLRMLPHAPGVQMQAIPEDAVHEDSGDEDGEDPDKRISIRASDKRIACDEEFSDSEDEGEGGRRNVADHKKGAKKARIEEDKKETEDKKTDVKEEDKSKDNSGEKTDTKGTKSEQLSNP

`O=NC(Cc1ccc(O)c(Br)c1)C(=O)NCCSSCCNC(=O)C(Cc1ccc(O)c(Br)c1)N=O` (stereo unspecified) [3-(3-bromo-4-hydroxy-phenyl)-N-[2-(2-{3-(3-bromo-4-hydroxy-phenyl)-2-[hydroxyimino]-propionylamino}-ethyldisulfanyl)-ethyl]-2-[hydroxyimino]-propionamide]: the IC50 came to 33 nM.

Usually IC50 stands for the midpoint of a concentration-inhibition curve.
